# Data: publication PMC9276671, “A first-in-human Phase I dose-escalation trial of the novel therapeutic peptide, ALM201, demonstrates a favourable safety profile in unselected patients with ovarian cancer and other advanced solid tumours” (British Journal of Cancer, 2022)
# No end group written: not given here.
# Assay: Plasma pharmacokinetics of ALM201 in Phase I patients (validated LC-MS/MS, Phoenix WinNonlin)
# Settings: human, plasma, sc; for level at 3 h: day 1 cycle 1, 3 h after dosing; for Tmax: median; for Tmax / AUC(0-t) / Cmax: plasma LC-MS/MS; for AUC(0-t): AUC0-t; for AUC(0-t) / Cmax: Gmean (CV); for level at 0.25 h: day 1 cycle 1, 0.25 h after dosing; for level at 0.75 h: day 1 cycle 1, 0.75 h after dosing; for level at 4 h: day 1 cycle 1, 4 h after dosing
# [1] = 40 mg, 40 mg SC, day 1 cycle 1, n = 1
# [2] = 40 mg, 40 mg SC, day 3 cycle 1, n = 1
# [3] = 40 mg, 40 mg SC, day 18 cycle 1, n = 1
# [4] = 40 mg, 40 mg SC, day 18 cycle 2, n = 1
# [5] = 40 mg, Plasma concentration, geometric mean (CV%), 40 mg SC, n = 1, LC-MS/MS
# [6] = 80 mg, 80 mg SC, day 1 cycle 1, n = 3
# [7] = 80 mg, 80 mg SC, day 3 cycle 1, n = 3
# [8] = 80 mg, 80 mg SC, day 18 cycle 1, n = 2, CV not calculated
# [9] = 80 mg, 80 mg SC, day 18 cycle 2, n = 1
# [10] = 80 mg, Plasma concentration, geometric mean (CV%), 80 mg SC, n = 3, LC-MS/MS
sequence,measurement,setting,value
IRQQPRDPPTETLELEVSPDPAS [ALM201],level at 1.5 h,"20 mg, Plasma concentration, geometric mean (CV%), 20 mg SC, day 1 cycle 1, 1.5 h after dosing, n = 1, LC-MS/MS",542 ng/mL
same,level at 2 h,"20 mg, Plasma concentration, geometric mean (CV%), 20 mg SC, day 1 cycle 1, 2 h after dosing, n = 1, LC-MS/MS",417 ng/mL
same,level at 3 h,"20 mg, Plasma concentration, geometric mean (CV%), 20 mg SC, n = 1, LC-MS/MS",224 ng/mL
same,level at 0.5 h,"20 mg, Plasma concentration, geometric mean (CV%), 20 mg SC, day 3 cycle 1, 0.5 h after dosing, n = 1, LC-MS/MS",210 ng/mL
same,level at 1 h,"20 mg, Plasma concentration, geometric mean (CV%), 20 mg SC, day 3 cycle 1, 1 h after dosing, n = 1, LC-MS/MS",614 ng/mL
same,level at 1.5 h,"20 mg, Plasma concentration, geometric mean (CV%), 20 mg SC, day 3 cycle 1, 1.5 h after dosing, n = 1, LC-MS/MS",532 ng/mL
same,level at 2 h,"20 mg, Plasma concentration, geometric mean (CV%), 20 mg SC, day 3 cycle 1, 2 h after dosing, n = 1, LC-MS/MS",377 ng/mL
same,level at 3.5 h,"20 mg, Plasma concentration, geometric mean (CV%), 20 mg SC, day 3 cycle 1, 3.5 h after dosing, n = 1, LC-MS/MS",134 ng/mL
same,level at 0.5 h,"20 mg, Plasma concentration, geometric mean (CV%), 20 mg SC, day 18 cycle 1, 0.5 h after dosing, n = 1, LC-MS/MS",194 ng/mL
same,level at 1 h,"20 mg, Plasma concentration, geometric mean (CV%), 20 mg SC, day 18 cycle 1, 1 h after dosing, n = 1, LC-MS/MS",319 ng/mL
same,level at 1.5 h,"20 mg, Plasma concentration, geometric mean (CV%), 20 mg SC, day 18 cycle 1, 1.5 h after dosing, n = 1, LC-MS/MS",314 ng/mL
same,level at 2 h,"20 mg, Plasma concentration, geometric mean (CV%), 20 mg SC, day 18 cycle 1, 2 h after dosing, n = 1, LC-MS/MS",224 ng/mL
same,level at 3.5 h,"20 mg, Plasma concentration, geometric mean (CV%), 20 mg SC, day 18 cycle 1, 3.5 h after dosing, n = 1, LC-MS/MS",113 ng/mL
same,level at 0.5 h,"20 mg, Plasma concentration, geometric mean (CV%), 20 mg SC, day 18 cycle 2, 0.5 h after dosing, n = 1, LC-MS/MS",279 ng/mL
same,level at 1 h,"20 mg, Plasma concentration, geometric mean (CV%), 20 mg SC, day 18 cycle 2, 1 h after dosing, n = 1, LC-MS/MS",394 ng/mL
same,level at 1.5 h,"20 mg, Plasma concentration, geometric mean (CV%), 20 mg SC, day 18 cycle 2, 1.5 h after dosing, n = 1, LC-MS/MS",352 ng/mL
same,level at 2 h,"20 mg, Plasma concentration, geometric mean (CV%), 20 mg SC, day 18 cycle 2, 2 h after dosing, n = 1, LC-MS/MS",386 ng/mL
same,level at 3.5 h,"20 mg, Plasma concentration, geometric mean (CV%), 20 mg SC, day 18 cycle 2, 3.5 h after dosing, n = 1, LC-MS/MS",162 ng/mL
same,Tmax,"20 mg, 20 mg SC, day 1 cycle 1, n = 1",1.5 h
same,Tmax,"20 mg, 20 mg SC, day 3 cycle 1, n = 1",1 h
same,Tmax,"20 mg, 20 mg SC, day 18 cycle 1, n = 1",1.02 h
same,AUC(0-t),[1],1920 ng·h/mL
same,AUC(0-t),[2],898 ng·h/mL
same,AUC(0-t),[3],1840 ng·h/mL
same,AUC(0-t),[4],1950 ng·h/mL
same,Cmax,[1],592 ng/mL
same,Cmax,[2],759 ng/mL
same,Cmax,[3],405 ng/mL
same,level at 0.25 h,[5],316 ng/mL
same,level at 0.75 h,[5],556 ng/mL
same,level at 1.5 h,"40 mg, Plasma concentration, geometric mean (CV%), 40 mg SC, day 1 cycle 1, 1.5 h after dosing, n = 1, LC-MS/MS",592 ng/mL
same,level at 2 h,"40 mg, Plasma concentration, geometric mean (CV%), 40 mg SC, day 1 cycle 1, 2 h after dosing, n = 1, LC-MS/MS",540 ng/mL
same,level at 3 h,[5],368 ng/mL
same,level at 4 h,[5],223 ng/mL
same,level at 5 h,"40 mg, Plasma concentration, geometric mean (CV%), 40 mg SC, day 1 cycle 1, 5 h after dosing, n = 1, LC-MS/MS",158 ng/mL
same,level at 0.5 h,"40 mg, Plasma concentration, geometric mean (CV%), 40 mg SC, day 3 cycle 1, 0.5 h after dosing, n = 1, LC-MS/MS",264 ng/mL
same,level at 1 h,"40 mg, Plasma concentration, geometric mean (CV%), 40 mg SC, day 3 cycle 1, 1 h after dosing, n = 1, LC-MS/MS",444 ng/mL
same,level at 1.5 h,"40 mg, Plasma concentration, geometric mean (CV%), 40 mg SC, day 3 cycle 1, 1.5 h after dosing, n = 1, LC-MS/MS",759 ng/mL
same,level at 2 h,"40 mg, Plasma concentration, geometric mean (CV%), 40 mg SC, day 3 cycle 1, 2 h after dosing, n = 1, LC-MS/MS",656 ng/mL
same,level at 0.5 h,"40 mg, Plasma concentration, geometric mean (CV%), 40 mg SC, day 18 cycle 1, 0.5 h after dosing, n = 1, LC-MS/MS",348 ng/mL
same,level at 1 h,"40 mg, Plasma concentration, geometric mean (CV%), 40 mg SC, day 18 cycle 1, 1 h after dosing, n = 1, LC-MS/MS",405 ng/mL
same,level at 1.5 h,"40 mg, Plasma concentration, geometric mean (CV%), 40 mg SC, day 18 cycle 1, 1.5 h after dosing, n = 1, LC-MS/MS",397 ng/mL
same,level at 2 h,"40 mg, Plasma concentration, geometric mean (CV%), 40 mg SC, day 18 cycle 1, 2 h after dosing, n = 1, LC-MS/MS",368 ng/mL
same,level at 3.5 h,"40 mg, Plasma concentration, geometric mean (CV%), 40 mg SC, day 18 cycle 1, 3.5 h after dosing, n = 1, LC-MS/MS",377 ng/mL
same,level at 5 h,"40 mg, Plasma concentration, geometric mean (CV%), 40 mg SC, day 18 cycle 1, 5 h after dosing, n = 1, LC-MS/MS",113 ng/mL
same,level at 0.5 h,"40 mg, Plasma concentration, geometric mean (CV%), 40 mg SC, day 18 cycle 2, 0.5 h after dosing, n = 1, LC-MS/MS",384 ng/mL
same,level at 1 h,"40 mg, Plasma concentration, geometric mean (CV%), 40 mg SC, day 18 cycle 2, 1 h after dosing, n = 1, LC-MS/MS",583 ng/mL
same,level at 1.5 h,"40 mg, Plasma concentration, geometric mean (CV%), 40 mg SC, day 18 cycle 2, 1.5 h after dosing, n = 1, LC-MS/MS",565 ng/mL
same,level at 2 h,"40 mg, Plasma concentration, geometric mean (CV%), 40 mg SC, day 18 cycle 2, 2 h after dosing, n = 1, LC-MS/MS",571 ng/mL
same,level at 3.5 h,"40 mg, Plasma concentration, geometric mean (CV%), 40 mg SC, day 18 cycle 2, 3.5 h after dosing, n = 1, LC-MS/MS",347 ng/mL
same,Tmax,[1],1.63 h
same,Tmax,[2],1.5 h
same,Tmax,[3],1 h
same,Tmax,[4],1.03 h
same,AUC(0-t),[6],3380 ng·h/mL
same,AUC(0-t),[7],2970 ng·h/mL
same,AUC(0-t),[8],3500 ng·h/mL
same,AUC(0-t),[9],3230 ng·h/mL
same,Cmax,[6],835 ng/mL
same,Cmax,[7],861 ng/mL
same,Cmax,[8],1090 ng/mL
same,Cmax,[9],849 ng/mL
same,level at 0.25 h,[10],292 ng/mL
same,level at 0.75 h,[10],700 ng/mL
same,level at 1.5 h,"80 mg, Plasma concentration, geometric mean (CV%), 80 mg SC, day 1 cycle 1, 1.5 h after dosing, n = 3, LC-MS/MS",800 ng/mL
same,level at 2 h,"80 mg, Plasma concentration, geometric mean (CV%), 80 mg SC, day 1 cycle 1, 2 h after dosing, n = 3, LC-MS/MS",727 ng/mL
same,level at 3 h,[10],689 ng/mL
same,level at 4 h,[10],556 ng/mL
same,level at 5 h,"80 mg, Plasma concentration, geometric mean (CV%), 80 mg SC, day 1 cycle 1, 5 h after dosing, n = 3, LC-MS/MS",359 ng/mL
same,level at 6 h,"80 mg, Plasma concentration, geometric mean (CV%), 80 mg SC, day 1 cycle 1, 6 h after dosing, n = 3, LC-MS/MS",248 ng/mL
same,level at 0.5 h,"80 mg, Plasma concentration, geometric mean (CV%), 80 mg SC, day 3 cycle 1, 0.5 h after dosing, n = 3, LC-MS/MS",578 ng/mL
same,level at 1 h,"80 mg, Plasma concentration, geometric mean (CV%), 80 mg SC, day 3 cycle 1, 1 h after dosing, n = 3, LC-MS/MS",684 ng/mL
same,level at 1.5 h,"80 mg, Plasma concentration, geometric mean (CV%), 80 mg SC, day 3 cycle 1, 1.5 h after dosing, n = 3, LC-MS/MS",827 ng/mL
same,level at 2 h,"80 mg, Plasma concentration, geometric mean (CV%), 80 mg SC, day 3 cycle 1, 2 h after dosing, n = 3, LC-MS/MS",826 ng/mL
same,level at 3.5 h,"80 mg, Plasma concentration, geometric mean (CV%), 80 mg SC, day 3 cycle 1, 3.5 h after dosing, n = 3, LC-MS/MS",524 ng/mL
same,level at 5 h,"80 mg, Plasma concentration, geometric mean (CV%), 80 mg SC, day 3 cycle 1, 5 h after dosing, n = 3, LC-MS/MS",325 ng/mL
same,level at 0.5 h,"80 mg, Plasma concentration, geometric mean (CV%), 80 mg SC, day 18 cycle 1, 0.5 h after dosing, n = 2, LC-MS/MS",769 ng/mL
same,level at 1 h,"80 mg, Plasma concentration, geometric mean (CV%), 80 mg SC, day 18 cycle 1, 1 h after dosing, n = 2, LC-MS/MS",946 ng/mL
same,level at 1.5 h,"80 mg, Plasma concentration, geometric mean (CV%), 80 mg SC, day 18 cycle 1, 1.5 h after dosing, n = 2, LC-MS/MS",884 ng/mL
same,level at 2 h,"80 mg, Plasma concentration, geometric mean (CV%), 80 mg SC, day 18 cycle 1, 2 h after dosing, n = 2, LC-MS/MS",1060 ng/mL
same,level at 3.5 h,"80 mg, Plasma concentration, geometric mean (CV%), 80 mg SC, day 18 cycle 1, 3.5 h after dosing, n = 2, LC-MS/MS",545 ng/mL
same,level at 5 h,"80 mg, Plasma concentration, geometric mean (CV%), 80 mg SC, day 18 cycle 1, 5 h after dosing, n = 2, LC-MS/MS",407 ng/mL
same,level at 0.5 h,"80 mg, Plasma concentration, geometric mean (CV%), 80 mg SC, day 18 cycle 2, 0.5 h after dosing, n = 1, LC-MS/MS",394 ng/mL
same,level at 1 h,"80 mg, Plasma concentration, geometric mean (CV%), 80 mg SC, day 18 cycle 2, 1 h after dosing, n = 1, LC-MS/MS",808 ng/mL
same,level at 1.5 h,"80 mg, Plasma concentration, geometric mean (CV%), 80 mg SC, day 18 cycle 2, 1.5 h after dosing, n = 1, LC-MS/MS",659 ng/mL
same,level at 2 h,"80 mg, Plasma concentration, geometric mean (CV%), 80 mg SC, day 18 cycle 2, 2 h after dosing, n = 1, LC-MS/MS",639 ng/mL
same,level at 3.5 h,"80 mg, Plasma concentration, geometric mean (CV%), 80 mg SC, day 18 cycle 2, 3.5 h after dosing, n = 1, LC-MS/MS",849 ng/mL
same,Tmax,[6],1.53 h
same,Tmax,"80 mg, 80 mg SC, day 18 cycle 1, n = 2",1.23 h
